Assay results reported in ChEMBL document CHEMBL1133317, “The solid phase synthesis of tetrahydroisoquinolines having cdc25B inhibitory activity” (Bioorg Med Chem Lett, 2000).
pIC50: −log10 of the molar value.

Molecular target: T1, M-phase inducer phosphatase 2 (Homo sapiens) (UniProt P30305)
T1 sequence (whole entry): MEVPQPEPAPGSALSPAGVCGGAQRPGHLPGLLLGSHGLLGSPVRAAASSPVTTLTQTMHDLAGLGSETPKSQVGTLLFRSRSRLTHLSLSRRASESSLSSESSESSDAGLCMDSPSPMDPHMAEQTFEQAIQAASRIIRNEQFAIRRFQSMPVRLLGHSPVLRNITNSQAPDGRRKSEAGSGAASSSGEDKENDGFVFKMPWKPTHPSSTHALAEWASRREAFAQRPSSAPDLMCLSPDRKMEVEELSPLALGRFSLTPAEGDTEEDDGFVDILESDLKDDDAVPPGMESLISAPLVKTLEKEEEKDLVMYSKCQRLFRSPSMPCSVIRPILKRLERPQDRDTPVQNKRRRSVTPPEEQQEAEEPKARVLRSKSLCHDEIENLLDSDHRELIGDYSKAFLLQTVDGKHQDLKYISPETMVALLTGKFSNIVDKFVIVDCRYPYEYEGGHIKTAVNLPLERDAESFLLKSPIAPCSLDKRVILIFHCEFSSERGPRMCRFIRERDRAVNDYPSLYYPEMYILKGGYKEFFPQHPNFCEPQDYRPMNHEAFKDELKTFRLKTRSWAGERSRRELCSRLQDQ
Assay: Inhibitory activity against Cell division cycle 25B at 100 uM

SMILES | inhibition [%]
O=C(O)[C@@H]1Cc2cc(I)c(OCc3ccc(Cl)cc3Cl)c(I)c2CN1C(=O)/C=C/c1ccccc1F | 32
COc1cccc(COc2c(I)cc3c(c2I)CN(C(=O)/C=C/c2ccccc2C(F)(F)F)[C@H](C(=O)O)C3)c1 | 28
N#C/C(=C\c1ccccc1)C(=O)N1Cc2c(cc(I)c(OCCCCl)c2I)C[C@H]1C(=O)O | 11
N#C/C(=C\c1ccccc1)C(=O)N1Cc2c(cc(I)c(O)c2I)C[C@H]1C(=O)O | 12
COc1cccc(COc2c(I)cc3c(c2I)CN(C(=O)/C=C/c2cccc(F)c2)[C@H](C(=O)O)C3)c1 | 41

Molecular target: T2, M-phase inducer phosphatase 2 (Homo sapiens, UniProt P30305)
T2 sequence (P30305 whole entry): T1 sequence (whole entry)
Assay: Compound was measured for its inhibitory activity against Cell division cycle 25B

SMILES | pIC50
COc1cccc(COc2c(I)cc3c(c2I)CN(C(=O)/C=C/c2ccc([N+](=O)[O-])cc2)[C@H](C(=O)O)C3)c1 | 4.23
COc1cccc(COc2c(I)cc3c(c2I)CN(C(=O)/C=C/c2ccc(Cl)cc2)[C@H](C(=O)O)C3)c1 | 4.12
O=C(O)[C@@H]1Cc2cc(I)c(OCc3ccc(Cl)cc3Cl)c(I)c2CN1C(=O)/C=C/c1cccc(F)c1 | 4.40
O=C(O)[C@@H]1Cc2cc(I)c(OCc3cccc(C(F)(F)F)c3)c(I)c2CN1C(=O)/C=C/c1ccc2c(c1)OCO2 | 4.18
O=C(O)[C@@H]1Cc2cc(I)c(OCc3cccc(C(F)(F)F)c3)c(I)c2CN1C(=O)/C=C/c1ccc(Cl)c(Cl)c1 | 4.12
O=C(O)[C@@H]1Cc2cc(I)c(OCc3c(Cl)cccc3Cl)c(I)c2CN1C(=O)/C=C/c1cccc(F)c1 | 4.35
O=C(O)[C@@H]1Cc2cc(I)c(OCc3ccc(C(F)(F)F)cc3)c(I)c2CN1C(=O)/C=C/c1ccccc1C(F)(F)F | 4.57
O=C(O)[C@@H]1Cc2cc(I)c(OCc3ccc(Cl)cc3Cl)c(I)c2CN1C(=O)/C(F)=C/c1ccccc1 | 4.44
O=C(O)[C@@H]1Cc2cc(I)c(OCc3ccc(Cl)cc3Cl)c(I)c2CN1C(=O)/C=C/c1ccc([N+](=O)[O-])cc1 | 4.35
O=C(O)[C@@H]1Cc2cc(I)c(OCc3ccc(Cl)cc3Cl)c(I)c2CN1C(=O)/C=C/c1ccccc1Br | 4.48
Cc1ccc(/C=C/C(=O)N2Cc3c(cc(I)c(OCc4ccc(C(F)(F)F)cc4)c3I)C[C@H]2C(=O)O)cc1 | 4.46
O=C(O)[C@@H]1Cc2cc(I)c(OCc3ccc(Cl)cc3Cl)c(I)c2CN1C(=O)/C=C/c1ccc(Cl)cc1 | 4.46
O=C(O)[C@@H]1Cc2cc(I)c(OCc3ccc(C(F)(F)F)cc3)c(I)c2CN1C(=O)/C=C/c1ccc([N+](=O)[O-])cc1 | 4.26
O=C(O)[C@@H]1Cc2cc(I)c(OCc3c(Cl)cccc3Cl)c(I)c2CN1C(=O)c1cccnc1Cl | 4.35
COc1cc(/C=C/C(=O)N2Cc3c(cc(I)c(OCc4ccc(C(F)(F)F)cc4)c3I)C[C@H]2C(=O)O)cc(OC)c1OC | 4.24
O=C(O)C1Cc2cc(I)c(OCc3c(Cl)cccc3Cl)c(I)c2CN1C(=O)C1CCCC1 (stereo not given) | 4.00
O=C(O)[C@@H]1Cc2cc(I)c(OCc3ccccc3F)c(I)c2CN1C(=O)/C=C/c1cccc(C(F)(F)F)c1 | 4.35
O=C(COc1c(I)cc2c(c1I)CN(C(=O)/C=C/c1ccccc1Br)[C@H](C(=O)O)C2)OCc1ccccc1 | 4.35
O=C(O)[C@@H]1Cc2cc(I)c(OCc3ccc(C(F)(F)F)cc3)c(I)c2CN1C(=O)/C=C/c1ccc2c(c1)OCO2 | 4.49
C/C(=C\c1ccccc1)C(=O)N1Cc2c(cc(I)c(OCc3ccc(Cl)cc3Cl)c2I)C[C@H]1C(=O)O | 4.40
O=C(O)[C@@H]1Cc2cc(I)c(OCc3ccc(Cl)cc3Cl)c(I)c2CN1C(=O)/C=C/c1ccc(Cl)c(Cl)c1 | 4.52
O=C(O)[C@@H]1Cc2cc(I)c(OCCCCl)c(I)c2CN1C(=O)/C=C/c1ccccc1Br | 4.48

SMILES | pIC50
O=C(O)[C@@H]1Cc2cc(I)c(OCc3ccccc3F)c(I)c2CN1C(=O)/C=C/c1cccc(Cl)c1 | 4.22
COc1cccc(COc2c(I)cc3c(c2I)CN(C(=O)/C=C/c2ccc(C)cc2)[C@H](C(=O)O)C3)c1 | 4.21
O=C(O)[C@@H]1Cc2cc(I)c(OCCCCl)c(I)c2CN1C(=O)/C(F)=C/c1ccccc1 | 4.00
O=C(O)[C@@H]1Cc2cc(I)c(OCCCCl)c(I)c2CN1C(=O)/C=C/c1ccc(Br)cc1 | 4.15
O=C(O)[C@@H]1Cc2cc(I)c(OCc3ccc(C(F)(F)F)cc3)c(I)c2CN1C(=O)/C=C/c1ccccc1F | 4.26
Cc1ccc(/C=C/C(=O)N2Cc3c(cc(I)c(OCc4ccc(Cl)cc4Cl)c3I)C[C@H]2C(=O)O)cc1 | 4.57
O=C(COc1c(I)cc2c(c1I)CN(C(=O)/C=C/c1cccc(Br)c1)[C@H](C(=O)O)C2)OCc1ccccc1 | 4.05
O=C(O)[C@@H]1Cc2cc(I)c(OCc3cccc(C(F)(F)F)c3)c(I)c2CN1C(=O)/C=C/c1ccccc1F | 4.46
COc1cccc(COc2c(I)cc3c(c2I)CN(C(=O)/C=C/c2ccc4c(c2)OCO4)[C@H](C(=O)O)C3)c1 | 4.24
O=C(O)[C@@H]1Cc2cc(I)c(OCCCCl)c(I)c2CN1C(=O)/C=C/c1cccc(Br)c1 | 4.15
O=C(O)[C@@H]1Cc2cc(I)c(OCc3ccc(Cl)cc3Cl)c(I)c2CN1C(=O)/C=C/c1ccccc1Cl | 4.82
O=C(O)[C@@H]1Cc2cc(I)c(OCc3cccc(C(F)(F)F)c3)c(I)c2CN1C(=O)c1cccnc1Cl | 4.52
O=C(O)[C@@H]1Cc2cc(I)c(OCc3c(Cl)cccc3Cl)c(I)c2CN1C(=O)/C=C/c1ccc(Cl)c(Cl)c1 | 4.26
O=C(O)[C@@H]1Cc2cc(I)c(OCc3ccc(Cl)cc3Cl)c(I)c2CN1C(=O)/C=C/c1ccc(Br)cc1 | 4.64
O=C(O)[C@@H]1Cc2cc(I)c(OCc3ccc(Cl)cc3Cl)c(I)c2CN1C(=O)/C=C/c1cc(Cl)cc(Cl)c1 | 4.64
O=C(O)[C@@H]1Cc2cc(I)c(OCc3ccc(Cl)cc3Cl)c(I)c2CN1C(=O)/C=C/c1cccc(Br)c1 | 4.40
O=C(O)[C@@H]1Cc2cc(I)c(OCc3c(Cl)cccc3Cl)c(I)c2CN1C(=O)/C=C/c1cccc(Cl)c1 | 4.70
O=C(O)[C@@H]1Cc2cc(I)c(OCc3ccc(C(F)(F)F)cc3)c(I)c2CN1C(=O)/C=C/c1ccc(Cl)cc1 | 4.52
O=C(O)[C@@H]1Cc2cc(I)c(OCc3c(Cl)cccc3Cl)c(I)c2CN1C(=O)/C=C/c1cccc(C(F)(F)F)c1 | 4.46
O=C(O)[C@@H]1Cc2cc(I)c(OCc3ccccc3F)c(I)c2CN1C(=O)CCc1ccccc1 | 4.10
O=C(O)[C@@H]1Cc2cc(I)c(OCc3ccc(Cl)cc3Cl)c(I)c2CN1C(=O)/C=C/c1cccc(Cl)c1 | 4.46
O=C(O)[C@@H]1Cc2cc(I)c(OCc3ccc(Cl)cc3Cl)c(I)c2CN1C(=O)/C=C/c1cccc(C(F)(F)F)c1 | 4.82

SMILES | pIC50
O=C(O)[C@@H]1Cc2cc(I)c(OCc3ccccc3F)c(I)c2CN1C(=O)c1cccnc1Cl | 4.05
O=C(O)[C@@H]1Cc2cc(I)c(OCc3cccc(C(F)(F)F)c3)c(I)c2CN1C(=O)/C=C/c1ccc([N+](=O)[O-])cc1 | 4.30
Cc1ccc(/C=C/C(=O)N2Cc3c(cc(I)c(OCc4cccc(C(F)(F)F)c4)c3I)C[C@H]2C(=O)O)cc1 | 4.52
O=C(O)[C@@H]1Cc2cc(I)c(OCc3ccccc3F)c(I)c2CN1C(=O)/C=C/c1cccc(F)c1 | 4.12
O=C(O)[C@@H]1Cc2cc(I)c(OCc3ccc(Cl)cc3Cl)c(I)c2CN1C(=O)CCc1ccccc1 | 4.30
O=C(O)[C@@H]1Cc2cc(I)c(OCCCCl)c(I)c2CN1C(=O)/C=C/c1ccc(Cl)cc1Cl | 4.28
O=C(O)[C@@H]1Cc2cc(I)c(OCCCCl)c(I)c2CN1C(=O)/C=C/c1ccccc1Cl | 4.57
O=C(O)[C@@H]1Cc2cc(I)c(OCc3ccccc3F)c(I)c2CN1C(=O)/C=C/c1ccc(Cl)c(Cl)c1 | 4.12
O=C(O)[C@@H]1Cc2cc(I)c(OCc3cccc(C(F)(F)F)c3)c(I)c2CN1C(=O)/C=C/c1cccc(F)c1 | 4.35
O=C(COc1c(I)cc2c(c1I)CN(C(=O)/C(F)=C/c1ccccc1)[C@H](C(=O)O)C2)OCc1ccccc1 | 4.05
O=C(COc1c(I)cc2c(c1I)CN(C(=O)/C=C/c1ccc(Br)cc1)[C@H](C(=O)O)C2)OCc1ccccc1 | 4.05
O=C(O)[C@@H]1Cc2cc(I)c(OCc3cccc(C(F)(F)F)c3)c(I)c2CN1C(=O)/C=C/c1cccc(C(F)(F)F)c1 | 4.30
O=C(O)[C@@H]1Cc2cc(I)c(OCc3ccc(C(F)(F)F)cc3)c(I)c2CN1C(=O)/C=C/c1cccc(F)c1 | 4.52
O=C(O)[C@@H]1Cc2cc(I)c(OCc3cccc(C(F)(F)F)c3)c(I)c2CN1C(=O)/C=C/c1ccccc1C(F)(F)F | 4.44
O=C(COc1c(I)cc2c(c1I)CN(C(=O)/C=C/c1ccc(Cl)cc1Cl)[C@H](C(=O)O)C2)OCc1ccccc1 | 4.55
O=C(COc1c(I)cc2c(c1I)CN(C(=O)/C=C/c1ccccc1Cl)[C@H](C(=O)O)C2)OCc1ccccc1 | 4.15
O=C(O)[C@@H]1Cc2cc(I)c(OCc3cccc(C(F)(F)F)c3)c(I)c2CN1C(=O)/C=C/c1cccc(Cl)c1 | 4.40
O=C(O)[C@@H]1Cc2cc(I)c(OCc3c(Cl)cccc3Cl)c(I)c2CN1C(=O)CCc1ccccc1 | < 4.00
O=C(O)[C@@H]1Cc2cc(I)c(OCc3ccc(Cl)cc3Cl)c(I)c2CN1C(=O)c1cccnc1Cl | < 4.00
O=C(O)[C@@H]1Cc2cc(I)c(OCc3ccc(Cl)cc3Cl)c(I)c2CN1C(=O)/C=C/c1ccc2c(c1)OCO2 | 4.22
O=C(O)[C@@H]1Cc2cc(I)c(OCc3cccc(C(F)(F)F)c3)c(I)c2CN1C(=O)CCc1ccccc1 | 4.30
